The text below walks through data of ChEMBL document CHEMBL2029276, “E297G mutated bile salt export pump (BSEP) function enhancers derived from GW4064: structural development study and separation from farnesoid X receptor-agonistic activity” (Bioorg Med Chem Lett, 2012).

SMILES strings stand for the structures.

Data set [1] concerns the target T1, Bile salt export pump (Homo sapiens, UniProt O95342, E297G). The data set is described as follows: Enhancement of human BSEP E297G mutant trafficking to cell membrane in MDCK2 cells co-expressing NTCP assessed as accumulation of [3H]taurocholate at 10 uM preincubated for 24 hrs prior incubation with [3H]taurocholate measured after 2 hrs by liquid scintillation counting. To be noted: mdck-ii.

Data set [2] concerns the target T2, Bile acid receptor (Homo sapiens, UniProt Q96RI1).
T2 sequence (Q96RI1 whole entry): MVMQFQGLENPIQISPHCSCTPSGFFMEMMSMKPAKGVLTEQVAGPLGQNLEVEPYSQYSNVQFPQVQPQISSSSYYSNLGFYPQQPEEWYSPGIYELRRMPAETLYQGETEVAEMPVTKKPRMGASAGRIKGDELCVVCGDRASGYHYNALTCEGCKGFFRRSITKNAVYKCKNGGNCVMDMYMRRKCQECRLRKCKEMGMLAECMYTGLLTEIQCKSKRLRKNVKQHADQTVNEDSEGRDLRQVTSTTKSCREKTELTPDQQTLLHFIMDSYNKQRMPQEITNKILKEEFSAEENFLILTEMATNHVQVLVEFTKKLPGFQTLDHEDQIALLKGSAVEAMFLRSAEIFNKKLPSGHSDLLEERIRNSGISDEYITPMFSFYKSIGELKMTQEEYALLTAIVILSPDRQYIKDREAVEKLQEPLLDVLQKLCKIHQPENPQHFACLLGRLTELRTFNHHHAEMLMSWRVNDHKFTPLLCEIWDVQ
Put plainly: Agonist activity at human recombinant FXR expressed in HEK293 cells coexpressing CMX-GAL4N by luciferase reporter gene assay. Type of data set: functional, cell-based. On the technique in general: A reporter such as luciferase makes a cellular process visible.

Data set [3] has as its target T1, Bile salt export pump. The data set is described as follows: Enhancement of human BSEP E297G mutant trafficking to cell membrane in MDCK2 cells co-expressing NTCP assessed as accumulation of [3H]taurocholate at 1 uM preincubated for 24 hrs prior incubation with [3H]taurocholate measured after 2 hrs by liquid scintillation counting. To be noted: mdck-ii.

T1 sequence (O95342 whole entry E297G): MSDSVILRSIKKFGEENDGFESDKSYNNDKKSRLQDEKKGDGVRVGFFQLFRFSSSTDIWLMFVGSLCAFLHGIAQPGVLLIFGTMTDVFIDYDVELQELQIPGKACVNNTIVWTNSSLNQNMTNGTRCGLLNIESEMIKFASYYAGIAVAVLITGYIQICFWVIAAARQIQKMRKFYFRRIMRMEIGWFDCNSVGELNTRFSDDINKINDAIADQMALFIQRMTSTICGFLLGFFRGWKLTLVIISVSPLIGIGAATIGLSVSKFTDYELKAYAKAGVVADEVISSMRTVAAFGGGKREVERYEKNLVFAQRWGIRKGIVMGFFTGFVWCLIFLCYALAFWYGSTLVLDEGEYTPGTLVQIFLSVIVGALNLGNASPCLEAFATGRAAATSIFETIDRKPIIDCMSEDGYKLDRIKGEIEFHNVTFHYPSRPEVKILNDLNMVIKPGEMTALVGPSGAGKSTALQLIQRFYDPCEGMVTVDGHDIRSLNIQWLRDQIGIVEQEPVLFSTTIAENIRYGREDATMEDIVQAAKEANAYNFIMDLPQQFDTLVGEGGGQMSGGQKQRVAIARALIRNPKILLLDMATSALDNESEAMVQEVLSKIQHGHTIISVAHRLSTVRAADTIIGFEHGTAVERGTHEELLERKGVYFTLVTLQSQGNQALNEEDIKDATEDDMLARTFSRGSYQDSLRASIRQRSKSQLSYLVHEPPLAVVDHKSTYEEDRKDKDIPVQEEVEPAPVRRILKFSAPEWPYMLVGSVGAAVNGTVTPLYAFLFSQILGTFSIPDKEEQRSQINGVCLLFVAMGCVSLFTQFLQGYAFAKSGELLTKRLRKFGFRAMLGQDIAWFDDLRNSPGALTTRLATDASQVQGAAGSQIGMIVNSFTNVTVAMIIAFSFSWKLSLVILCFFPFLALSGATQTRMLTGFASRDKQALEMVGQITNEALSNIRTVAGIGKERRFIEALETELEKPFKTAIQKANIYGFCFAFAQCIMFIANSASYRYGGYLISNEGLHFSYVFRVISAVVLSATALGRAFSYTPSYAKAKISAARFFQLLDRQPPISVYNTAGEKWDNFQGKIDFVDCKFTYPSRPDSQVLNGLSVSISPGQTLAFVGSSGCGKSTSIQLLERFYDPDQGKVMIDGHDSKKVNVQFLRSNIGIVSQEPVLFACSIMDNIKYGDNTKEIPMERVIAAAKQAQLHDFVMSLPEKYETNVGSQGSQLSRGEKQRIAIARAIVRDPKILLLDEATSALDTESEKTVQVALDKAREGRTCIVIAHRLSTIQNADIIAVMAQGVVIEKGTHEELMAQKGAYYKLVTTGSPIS

In the case of `CC(C)c1onc(-c2c(Cl)cccc2Cl)c1COc1ccc(/C=C/c2cccc(C(=O)O)c2)c(Cl)c1`, in data set [1], the Activity is 33%. `CC(C)c1onc(-c2c(Cl)cccc2Cl)c1COc1ccc(C(=O)N(Cc2ccccc2)c2cccc(C(=O)O)c2)c(Cl)c1`: the Activity in data set [1] came to 31%. Take `CCCCN(C(=O)c1ccc(OCc2c(-c3c(Cl)cccc3Cl)noc2C(C)C)cc1Cl)c1cccc(C(=O)O)c1`: the EC50 (usually the concentration at which the effect is half-maximal) in data set [2] was found to be 1.1 µM.

With `CC(C)c1onc(-c2c(Cl)cccc2Cl)c1COc1ccc(N(Cc2ccccc2)C(=O)c2cccc(C(=O)O)c2)c(Cl)c1`, in data set [2], the 50% effective concentration (EC50) is over 10 µM. For the same molecule, the Activity in data set [1] came out at 50%. Consider `C[C@H](CCC(=O)O)[C@H]1CC[C@H]2[C@@H]3CC[C@@H]4C[C@H](O)CC[C@]4(C)[C@H]3C[C@H](O)[C@]12C` [DEOXYCHOLIC ACID], for which the concentration giving a half-maximal response (EC50) in data set [2] was found to be 50 µM. In the case of `CC(C)c1onc(-c2c(Cl)cccc2Cl)c1COc1ccc(N(C(=O)c2cccc(C(=O)O)c2)c2cccc3ccccc23)c(Cl)c1`, the EC50 in data set [2] worked out at 0.41 µM. Moreover, in data set [1], the Activity was determined as 59%. Regarding `CC(C)c1onc(-c2c(Cl)cccc2Cl)c1COc1ccc(N(C)C(=O)c2cccc(C(=O)O)c2)c(Cl)c1`, in data set [1], the Activity was found to be 60%. In the case of `CC(C)c1onc(-c2c(Cl)cccc2Cl)c1COc1ccc(C(=O)N(Cc2ccccc2)c2ccc(C(=O)O)cc2)c(Cl)c1`, in data set [2], the EC50 was 2.6 µM. As for `CC(C)c1onc(-c2c(Cl)cccc2Cl)c1COc1ccc(NC(=O)c2cccc(C(=O)O)c2)c(Cl)c1`, the Activity in data set [1] was determined as 75%. For `CC(C)c1onc(-c2c(Cl)cccc2Cl)c1COc1ccc(C(=O)N(c2cccc(C(=O)O)c2)c2cccc3ccccc23)c(Cl)c1`, in data set [2], the half-maximal effective concentration (EC50) was 3 µM. Consider `C[C@H](CCC(=O)O)[C@H]1CC[C@H]2[C@@H]3[C@H](O)C[C@@H]4C[C@H](O)CC[C@]4(C)[C@H]3CC[C@]12C` [CHENODIOL], for which, in data set [1], the Activity stood at 50%. Consider `CCCCN(C(=O)c1cccc(C(=O)O)c1)c1ccc(OCc2c(-c3c(Cl)cccc3Cl)noc2C(C)C)cc1Cl`, for which the figures for the Activity in data set [3] and in data set [1] were 59% and 42%, respectively.
